According to patent US20230285524A1, “USE OF ELAFIN FOR DISORDERS ASSOCIATED WITH ELASTASE INDEPENDENT INCREASE IN TROPONIN” (tiakis Biotech AG, priority 2014, published 2023):

Tests used:
[1] = system: U937; settings: U937 cells, Butler et al., 2006, cited from earlier work
[2] = system: C-reactive protein (CRP); assay: Serum C-reactive protein after on-pump coronary artery bypass grafting surgery, Elafin versus placebo; assay type: in vivo, human; settings: 200 mg i.v. infusion, time point 6 h
Procedure: (§1) 44 Patients undergoing on-pump coronary artery bypass grafting surgery received a 200 mg dose of Elafin in 250 mL of normal saline by intravenous infusion that was started at first skin incision and completed at least 20 min before cardiopulmonary bypass commenced. A second group of 42 patients undergoing the same surgical procedure received 250 ml normal saline (placebo) per infusion instead.
Blood was drawn from patients and from the blood samples serum was prepared. Serum levels of the inflammatory marker C-reactive protein (CRP) at time point 6 h were measured (FIG. 4).

[3] = system: troponin I release from cardiomyocytes; assay: Plasma cTroponin I after coronary artery bypass grafting surgery, randomized double-blinded trial, Elafin versus placebo; assay type: in vivo, human; settings: 200 mg i.v. infusion at start of surgery
Procedure: Patients undergoing coronary artery bypass grafting surgery were treated with either intravenous infusion of a 200 mg dose of Elafin in 250 mL of normal saline (Elafin group, n=44) or 250 mL of normal saline (placebo group, n=42) in a randomized, double-blinded clinical trial. The intravenous infusion was started at first skin incision and completed at least 20 min before cardiopulmonary bypass commenced.
Blood samples were taken at baseline (time 0, skin incision) and at 2, 6, 24 and 48 h post-operatively. Plasma cTroponin I concentrations were quantified with the Abbott Architect highly-sensitive assay (Abbott Laboratories, ILL) according to the manufacturer's instructions. This assay has a sensitivity of 0.01 ng/mL or less, with a 10% coefficient of variation of 0.032 ng/mL and a 99th percentile (male and female) of 0.012 ng/mL. cTroponin I is a regulatory protein of cardiomyocyte contraction and its presence in blood plasma is a specific indication of cardiomyocyte injury.

[4] = rats; cited from earlier work
[5] = system: IL-6; assay: Serum interleukin 6 after on-pump coronary artery bypass grafting surgery, Elafin versus placebo; assay type: in vivo, human; settings: 200 mg i.v. infusion
Procedure: as §1
Blood was drawn from patients and from the blood samples serum was prepared. Serum levels of interleukin 6 were determined by the use of a Human Interleukin 6 Immunoassay (R&D Systems Europe, Abingdon, UK) according to the instructions of the manufacturer. This assay employs the quantitative sandwich enzyme immunoassay technique. A monoclonal antibody specific for IL-6 has been pre-coated onto a microplate. Interleukin 6 standards and samples were pipetted into wells and any IL-6 present was bound by an immobilized antibody. After washing away any unbound substances, an enzyme-linked polyclonal antibody specific for IL-6 was added to the wells. Following a wash to remove any unbound antibody-enzyme reagent, a substrate solution was added to the wells. After an incubation period, an amplifier solution was added to the wells and color developed in proportion to the amount of IL-6 bound in the initial step. The color development was stopped and the intensity of the color is measured.

[6] = system: 20 S proteasome; settings: Butler et al., 2006; cited from earlier work

Substance: Elafin: recombinant human protein of 57 amino acids (SEQ ID NO:1), reversible tight binding inhibitor of elastase and proteinase 3 (AQEPVKGPVSTKPGSCPIILIRCAMLNPPNRCLKDTDCPGIKKCCEGSCGMACFVPQ; listed as Homo sapiens)
- LPS-induced activation of the transcription factors AP-1 and NF-κB [1]: inhibited
- production of macrophage chemokine MCP-1 (CCL2) ([1]; LPS): inhibition
- effect on serum level of CRP (postoperative rise) [2]: no effect
- effect on serum level of CRP (postoperative rise) ([2]; listed as elafin): not affected
- reduction of troponin I release 6 hours after commencement of surgery ([3]; 6 h): significant reduction
- overall reduction of the Troponin I release (area under the curve) over 48 hours, in words ([3]; AUC 0-48 h): overall reduction
- overall reduction of the troponin I release over 48 hours (area under the curve) ([3]; AUC 0-48 h): 20-40%
- side effects after intravenous administration [4]: without any side effects
- effect on serum level of IL-6 (postoperative rise) [5]: no effect
- effect on serum level of IL-6 (postoperative rise) ([5]; listed as elafin): not affected
- inhibition of peptidase activities associated with the 20 S proteasome [6]: no inhibition
